Experimental data taken from patent US10550111B2, “Pyrimidine urea compound containing isoxazolines and use thereof” (SHENYANG SINOCHEM AGROCHEMICALS R&D CO., LTD, priority 2014, dated 2020).

What was measured:
Format in all cases: in vivo
[1] = system: Abutilon theophrasti Medic.; assay: Bioassay of herbicidal activity in greenhouse (further screening)
Procedure: (§1) Determination of herbicidal activity of compounds of the present invention against weeds was carried out by the following procedures:
(§2) Seeds of monocotyledonous and dicotyledonous weeds were sown in nutrition soil in paper pot (7 cm diameter), covered with soil in 1 cm and grown in the greenhouse under good growth conditions (temperature, atmospheric humidity, water supply). The compounds of the present invention as emulsifiable concentrate, were applied in pre-emergence and post-emergence treatment by track sprayer (Engineer Research Ltd., pressure 1.95 kg/cm^2, volume 500 L/hm^2, track speed 1.48 km/h). Pre-emergence treatment was conducted after seeding 24 hours and post-emergence treatment was done when the respective weeds reached predetermined leaf stage (grass weed 2- to 3-leaf stage, broad-leaf weed 2- to 4-leaf stage), the state of growth of the respective weeds were visually observed to determine the growth inhibition rate (%) in accordance with the following evaluation standard.
(§3) Growth inhibition rate (%): 0=no discernible action: 100=all weeds dead or not emerged.

Zinnia elegans Jacq. = assay: as above
Procedure: as §1, §2, §3

[2] = system: Setaria glauca (L.) Beauv.; assay: as above
Procedure: as §1, §2, §3

[3] = system: Echinochloa crus-galli (L.) Beauv.; assay: as above
Procedure: as §1, §2, §3

[4] = system: broad-leaf weeds and grass weeds; assay: General screening of herbicidal activity in greenhouse; conditions: 1000 g a.i./hm^2;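 further: 0 means no visible effect and 100 means all weeds dead or not emerged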
Procedure: as §1, §2, §3

| SMILES | Growth inhibition rate, Post-emergence treatment, Abutilon theophrasti Medic. ([1]; dose 37.5 g a.i./hm^2) [%] | Growth inhibition rate, Post-emergence treatment, Abutilon theophrasti Medic. ([1]; dose 150 g a.i./hm^2) [%] | Growth inhibition rate, Post-emergence treatment, Abutilon theophrasti Medic. ([1]; dose 600 g a.i./hm^2) [%] | Growth inhibition rate, Pre-emergence treatment, Abutilon theophrasti Medic. ([1]; dose 37.5 g a.i./hm^2) [%] | Growth inhibition rate, Pre-emergence treatment, Abutilon theophrasti Medic. ([1]; dose 150 g a.i./hm^2) [%] | Growth inhibition rate, Pre-emergence treatment, Abutilon theophrasti Medic. ([1]; dose 600 g a.i./hm^2) [%] | Growth inhibition rate, Post-emergence treatment, Zinnia elegans Jacq. (Zinnia elegans Jacq.; dose 37.5 g a.i./hm^2) [%] | Growth inhibition rate, Post-emergence treatment, Zinnia elegans Jacq. (Zinnia elegans Jacq.; dose 150 g a.i./hm^2) [%] | Growth inhibition rate, Post-emergence treatment, Zinnia elegans Jacq. (Zinnia elegans Jacq.; dose 600 g a.i./hm^2) [%] | Growth inhibition rate, Pre-emergence treatment, Zinnia elegans Jacq. (Zinnia elegans Jacq.; dose 37.5 g a.i./hm^2) [%] | Growth inhibition rate, Pre-emergence treatment, Zinnia elegans Jacq. (Zinnia elegans Jacq.; dose 150 g a.i./hm^2) [%] | Growth inhibition rate, Pre-emergence treatment, Zinnia elegans Jacq. (Zinnia elegans Jacq.; dose 600 g a.i./hm^2) [%] | Growth inhibition rate, Post-emergence treatment, Setaria glauca (L.) Beauv. ([2]; dose 37.5 g a.i./hm^2) [%] | Growth inhibition rate, Post-emergence treatment, Setaria glauca (L.) Beauv. ([2]; dose 150 g a.i./hm^2) [%] | Growth inhibition rate, Post-emergence treatment, Setaria glauca (L.) Beauv. ([2]; dose 600 g a.i./hm^2) [%] | Growth inhibition rate, Pre-emergence treatment, Setaria glauca (L.) Beauv. ([2]; dose 37.5 g a.i./hm^2) [%] | Growth inhibition rate, Pre-emergence treatment, Setaria glauca (L.) Beauv. ([2]; dose 150 g a.i./hm^2) [%] | Growth inhibition rate, Pre-emergence treatment, Setaria glauca (L.) Beauv. ([2]; dose 600 g a.i./hm^2) [%] | Growth inhibition rate, Post-emergence treatment, Echinochloa crus-galli (L.) Beauv. ([3]; dose 37.5 g a.i./hm^2) [%] | pre-emergence and post-emergence herbicidal activity against broad-leaf weeds and grass weeds [4] | other results |
| --- | --- | --- | --- | --- | --- | --- | --- | --- | --- | --- | --- | --- | --- | --- | --- | --- | --- | --- | --- | --- | --- |
| Cn1c(C(F)(F)F)cc(=O)n(-c2cc(C3=NOC(C)(C(=O)O)C3)c(Cl)cc2F)c1=O (centres unmarked) [Compound 4] | 50 | 98 | 98 | 10 | 15 | 40 | 95 | 100 | 100 | 0 | 5 | 20 | 20 | 70 | 100 | 0 | 5 | 30 | 15 | good | Growth inhibition rate, Post-emergence treatment, Echinochloa crus-galli (L.) Beauv. ([3]; dose 150 g a.i./hm^2): 25%; Growth inhibition rate, Post-emergence treatment, Echinochloa crus-galli (L.) Beauv. ([3]; dose 600 g a.i./hm^2): 85%; Growth inhibition rate, Pre-emergence treatment, Echinochloa crus-galli (L.) Beauv. ([3]; dose 37.5 g a.i./hm^2): 0%; Growth inhibition rate, Pre-emergence treatment, Echinochloa crus-galli (L.) Beauv. ([3]; dose 150 g a.i./hm^2): 0%; Growth inhibition rate, Pre-emergence treatment, Echinochloa crus-galli (L.) Beauv. ([3]; dose 600 g a.i./hm^2): 10% |
| COCCOC(=O)C1(C)CC(c2cc(-n3c(=O)cc(C(F)(F)F)n(C)c3=O)c(F)cc2Cl)=NO1 (centres unmarked) [Compound 16] |  |  |  |  |  |  |  |  |  |  |  |  |  |  |  |  |  |  |  | good | Growth inhibition rate, Post-emergence treatment, Abutilon theophrasti Medic. ([1]; dose 7.5 g a.i./hm^2): 75%; Growth inhibition rate, Post-emergence treatment, Abutilon theophrasti Medic. ([1]; dose 15 g a.i./hm^2): 98%; Growth inhibition rate, Post-emergence treatment, Abutilon theophrasti Medic. ([1]; dose 30.0 g a.i./hm^2): 100%; Growth inhibition rate, Post-emergence treatment, Abutilon theophrasti Medic. ([1]; dose 60.0 g a.i./hm^2): 100%; Growth inhibition rate, Post-emergence treatment, Abutilon theophrasti Medic. ([1]; dose 120.0 g a.i./hm^2): 100%; Growth inhibition rate, Post-emergence treatment, Zinnia elegans Jacq. (Zinnia elegans Jacq.; dose 7.5 g a.i./hm^2): 98%; Growth inhibition rate, Post-emergence treatment, Zinnia elegans Jacq. (Zinnia elegans Jacq.; dose 15 g a.i./hm^2): 100%; Growth inhibition rate, Post-emergence treatment, Zinnia elegans Jacq. (Zinnia elegans Jacq.; dose 30.0 g a.i./hm^2): 100%; Growth inhibition rate, Post-emergence treatment, Zinnia elegans Jacq. (Zinnia elegans Jacq.; dose 60.0 g a.i./hm^2): 100%; Growth inhibition rate, Post-emergence treatment, Zinnia elegans Jacq. (Zinnia elegans Jacq.; dose 120.0 g a.i./hm^2): 100%; Growth inhibition rate, Post-emergence treatment, Setaria glauca (L.) Beauv. ([2]; dose 7.5 g a.i./hm^2): 75%; Growth inhibition rate, Post-emergence treatment, Setaria glauca (L.) Beauv. ([2]; dose 15 g a.i./hm^2): 98%; Growth inhibition rate, Post-emergence treatment, Setaria glauca (L.) Beauv. ([2]; dose 30.0 g a.i./hm^2): 100%; Growth inhibition rate, Post-emergence treatment, Setaria glauca (L.) Beauv. ([2]; dose 60.0 g a.i./hm^2): 100%; Growth inhibition rate, Post-emergence treatment, Setaria glauca (L.) Beauv. ([2]; dose 120.0 g a.i./hm^2): 100%; Growth inhibition rate, Post-emergence treatment, Echinochloa crus-galli (L.) Beauv. ([3]; dose 7.5 g a.i./hm^2): 50%; Growth inhibition rate, Post-emergence treatment, Echinochloa crus-galli (L.) Beauv. ([3]; dose 15 g a.i./hm^2): 80%; Growth inhibition rate, Post-emergence treatment, Echinochloa crus-galli (L.) Beauv. ([3]; dose 30.0 g a.i./hm^2): 100%; Growth inhibition rate, Post-emergence treatment, Echinochloa crus-galli (L.) Beauv. ([3]; dose 60.0 g a.i./hm^2): 100%; Growth inhibition rate, Post-emergence treatment, Echinochloa crus-galli (L.) Beauv. ([3]; dose 120.0 g a.i./hm^2): 100% |
| CCCCOC(=O)C1(C)CC(c2cc(-n3c(=O)cc(C(F)(F)F)n(C)c3=O)ccc2Cl)=NO1 (centres unmarked) [Compound 286] | 90 | 100 | 100 | 0 | 0 | 15 | 85 | 100 | 100 | 0 | 0 | 10 | 15 | 70 | 75 | 0 | 10 | 30 | 20 | good | Growth inhibition rate, Post-emergence treatment, Echinochloa crus-galli (L.) Beauv. ([3]; dose 150 g a.i./hm^2): 60%; Growth inhibition rate, Post-emergence treatment, Echinochloa crus-galli (L.) Beauv. ([3]; dose 600 g a.i./hm^2): 75%; Growth inhibition rate, Pre-emergence treatment, Echinochloa crus-galli (L.) Beauv. ([3]; dose 37.5 g a.i./hm^2): 0%; Growth inhibition rate, Pre-emergence treatment, Echinochloa crus-galli (L.) Beauv. ([3]; dose 150 g a.i./hm^2): 5%; Growth inhibition rate, Pre-emergence treatment, Echinochloa crus-galli (L.) Beauv. ([3]; dose 600 g a.i./hm^2): 15% |
